Test results reported in PMC9213526, “Glycoside hydrolase from the GH76 family indicates that marine Salegentibacter sp. Hel_I_6 consumes alpha-mannan from fungi” (The ISME Journal, 2022).

What was measured:
ShGH76 [1] = target: T1, ShGH76 (Salegentibacter sp. Hel_I_6, UniProt A0ACD6BAU6, D116N/D117N, form not given); assay: X-ray crystallography of the complex, […] Å; format: binding; conditions: inactive double mutant ShGH76^Asn; co-crystallised at pH 4.6 with 140 mM calcium chloride; active site
T1 construct: gene GH76A; synthetic gene in pET28a(+) (NheI/XhoI), N-terminal 6xHis tag, E. coli BL21(DE3); modelled residues Asp54-Glu391

ShGH76 [2] = target: T2, ShGH76 (Salegentibacter sp. Hel_I_6, UniProt A0ACD6BAU6, D116A/D117A, form not given); assay: X-ray crystallography of the complex, […] Å; format: binding; conditions: inactive double mutant ShGH76^Ala; co-crystallised in 1.6 M tri-sodium citrate; active site
T2 construct: gene GH76A; synthetic gene in pET28a(+) (NheI/XhoI), N-terminal 6xHis tag, E. coli BL21(DE3); modelled residues Asp54-Glu391

ShGH76 [3] = target: T3, ShGH76 (Salegentibacter sp. Hel_I_6, UniProt A0ACD6BAU6); assay: HPAEC-PAD product analysis; format: biochemical
T3 construct: gene GH76A; synthetic gene in pET28a(+) (NheI/XhoI), N-terminal 6xHis tag, E. coli BL21(DE3); modelled residues Asp54-Glu391

In the case of `OC[C@H]1O[C@H](OC[C@H]2O[C@H](OC[C@H]3OC(O)[C@@H](O)[C@@H](O)[C@@H]3O)[C@@H](O)[C@@H](O)[C@@H]2O)[C@@H](O)[C@@H](O)[C@@H]1O` (stereo partly drawn) [Man3, α-1,6-mannotriose], the “X-ray crystallography of the complex, 1.47 Å” value (ShGH76 [1]) is reported as “crystal structures of ShGH76^WT (apo-form), ShGH76^Asn (with Man3) and ShGH76^Ala (with Man4)”.
In the case of `OC[C@H]1O[C@H](OC[C@H]2O[C@H](OC[C@H]3O[C@H](OC[C@H]4OC(O)[C@@H](O)[C@@H](O)[C@@H]4O)[C@@H](O)[C@@H](O)[C@@H]3O)[C@@H](O)[C@@H](O)[C@@H]2O)[C@@H](O)[C@@H](O)[C@@H]1O` (stereo partly drawn) [Man4, α-1,6-mannotetrose], the “X-ray crystallography of the complex, 1.90 Å” value (ShGH76 [2]) is reported as “crystal structures of ShGH76^WT (apo-form), ShGH76^Asn (with Man3) and ShGH76^Ala (with Man4)”.
`OC[C@H]1O[C@H](OC[C@H]2O[C@H](OC[C@H]3O[C@H](OC[C@H]4O[C@H](OC[C@H]5O[C@H](OC[C@H]6O[C@H](OC[C@H]7OC(O)[C@@H](O)[C@@H](O)[C@@H]7O)[C@@H](O)[C@@H](O)[C@@H]6O)[C@@H](O)[C@@H](O)[C@@H]5O)[C@@H](O)[C@@H](O)[C@@H]4O)[C@@H](O)[C@@H](O)[C@@H]3O)[C@@H](O)[C@@H](O)[C@@H]2O)[C@@H](O)[C@@H](O)[C@@H]1O` (stereo partly drawn) [Man7, mannoheptose] was tested, and the HPAEC-PAD product analysis (ShGH76 [3]) was “As is exemplarily shown for Man7 (Fig. 5D), ShGH76^WT hydrolyzed α-1,6-mannooligosaccharides almost completely”.
